Read-outs that look alike come from different tables or passages of the source.
Columns and labels:
CB1 receptor = molecular target: T1, CB1 receptor (Rattus norvegicus, UniProt P20272); assay: Radioligand displacement in whole rat brain (CB1) membrane preparations; type: binding
T1 construct: Whole rat brains or dissected regions from live CD rats; tissue Charles River or Pel-Freez Biologicals; host or cells: whole rat brain (CD rats), P2 membrane
Text: CB1 receptor affinity in rat brain.
Methods—membrane preparation from brain. The methods for tissue preparation are essentially those described by Devane et al. (1988) as modified by Compton et al. (1993) and later by Thomas et al. (1998). Whole rat brains or dissected regions from live CD rats from Charles River or Pel-Freez Biologicals (Rogers, Ark.), or human brain sections obtained from the National Disease Research Institute, were allowed to thaw to room temperature on ice. Both whole brain and dissected brain regions were used because different brain regions may express different cannabinoid receptor subtypes (Skaper et al., 1996; Thomas et al., 1998). The tissue was homogenized with a Kontes Potter-Elvehjem glass-Teflon grinding system (Fisher Scientific, Springfield, N.J.) in buffer 1 (320 mM sucrose, 2 mM EDTA, 5 mM MgCl2. The homogenate was centrifuged at 1600 g for 10 min. The supernatant was saved and combined with the two subsequent supernatants obtained from washing and 1600 g centrifugation of the P1 pellet. The combined supernatant fractions were then centrifuged at 39,000 g for 15 min. The P2 pellet was resuspended in 50 mL of buffer 2 (50 mM Tris.HCl, 2 mM EDTA, 5 mM MgCl2, pH 7.0), incubated at 37° C. for 10 min, then centrifuged at 23,000 g for 10 min. The P2 membrane was resuspended in 50 mL of buffer 2, incubated at 30° C. for 40 min, then centrifuged at 11,000 g for 15 min. The final wash-treated P2 pellet was resuspended in assay buffer 3 (50 mM Tris.HCl, 1 mM EDTA, 3 MM MgCl2, pH 7.4). Protein concentrations were determined by the method of Bradford (1976) using Coomassie brilliant blue dye (Bio-Rad, Richmond, Calif.) and BSA standards (bovine serum albumin, fatty acid free, Sigma Chemical Co., St. Louis, Mo.) prepared in assay buffer 3. The membrane preparation was divided into aliquots and stored at −80° C. For use in the binding assay, an aliquot of frozen membranes was thawed on ice and diluted to a concentration of ca. 0.2 mg/mL in assay buffer.
Methods—binding assay in brain membrane preparation. The methods for ligand binding are essentially those described by Devane et al. (1988) with the exception that we used a filtration assay. […] All cannabinoid analogs were prepared by suspension in buffer A from a 1-5 mg/mL ethanolic stock. Following incubation at 30° C. for 1 h, binding was terminated by vacuum filtration through pretreated filters in a 96-well sampling manifold (Millipore, Bedford, Mass.). Reaction vessels were washed at least 3 times with 1 mL of ice cold buffer B (50 mM Tris.HCl, 1 mg/mL BSA). The filter plates were air-dried and sealed on the bottom. Liquid scintillant was added to the wells and the top sealed. After incubating the plates in cocktail for at least 2 h, the radioactivity present was determined by liquid scintillation spectrometry. Assays were done in duplicate, and results represent the combined data of three to six independent experiments. All assays were performed in polypropylene test tubes. The GF/C glassfiber filter plates (Packard, Meriden, Conn.) were pretreated in buffer B for at least 1 h.
(§1) Data analysis. Saturation and displacement data were analyzed by unweighted nonlinear regression of receptor binding data. For displacement studies, curve-fitting and IC50 calculation were done with GraphPad Prism (GraphPad Software, Inc., San Diego, Calif.), which fits the data to one and two-site models and compares the two fits statistically. A similar approach was used for the analysis of isotherm data for calculation of Kd's. A two-site fit was accepted only if it was statistically significant (p<0.05) and the following results were not observed:
(§2) IC50 values were then converted to Ki values by reported methods (Cheng and Prusoff, 1973). The statistical evaluation of curve-fitting data allowed for a non-arbitrary conclusion based on the displacement data.

human CB2 receptor = molecular target: T2, human CB2 receptor (Homo sapiens, UniProt P34972); assay: Displacement of 3H-CP55,940 in human CB2 receptor-transfected cells (CHO-K1); type: binding; settings: radioligand 3H-CP55940, Tables 6 and 7
T2 construct: expressed in transfected cells; host or cells: CHO-K1
T2 sequence (P34972 whole entry): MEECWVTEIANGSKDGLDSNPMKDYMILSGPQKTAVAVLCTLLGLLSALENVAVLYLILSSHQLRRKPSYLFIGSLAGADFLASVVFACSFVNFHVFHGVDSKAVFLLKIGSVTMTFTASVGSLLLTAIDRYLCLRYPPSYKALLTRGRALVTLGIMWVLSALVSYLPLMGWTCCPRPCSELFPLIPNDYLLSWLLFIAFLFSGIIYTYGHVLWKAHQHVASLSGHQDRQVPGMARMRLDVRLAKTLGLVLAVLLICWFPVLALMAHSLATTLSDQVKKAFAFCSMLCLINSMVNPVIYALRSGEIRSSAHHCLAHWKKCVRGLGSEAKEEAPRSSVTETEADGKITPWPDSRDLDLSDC
Experimental: Human CB2 receptor affinity. The relative selectivity of the analogs for CB1 versus CB2 receptors varied modestly regardless of the structural modifications examined to date.
(§3) Methods—binding assay in transfected cell lines. The methods used for performing binding assays in transfected cells expressing human CB1 or CB2 receptors are those used above. The CB1 receptor involved a HEK-293 expression system whereas the CB2 receptor was expressed in CHO-K1 cells. […] The incubations and separations were then performed as described above for rat brain membrane preparations.
as §1, §2

[1] = molecular target: T3, G-protein-linked cannabinoid receptors (Rattus norvegicus, UniProt P20272); assay: GTP-γ-[35S] binding in whole rat brain; type: biochemical; settings: whole rat brain membranes; for Emax, GTP-γ-[35S] in Whole Rat Brain / Emax: effects reported as percent change from basal; for Emax: read-out: Emax, GTP-γ-[35S] in Whole Rat Brain
T3 construct: tissue Charles River or Pel-Freez Biologicals; host or cells: whole rat brain crude membrane homogenate
T3 sequence (P20272 whole entry): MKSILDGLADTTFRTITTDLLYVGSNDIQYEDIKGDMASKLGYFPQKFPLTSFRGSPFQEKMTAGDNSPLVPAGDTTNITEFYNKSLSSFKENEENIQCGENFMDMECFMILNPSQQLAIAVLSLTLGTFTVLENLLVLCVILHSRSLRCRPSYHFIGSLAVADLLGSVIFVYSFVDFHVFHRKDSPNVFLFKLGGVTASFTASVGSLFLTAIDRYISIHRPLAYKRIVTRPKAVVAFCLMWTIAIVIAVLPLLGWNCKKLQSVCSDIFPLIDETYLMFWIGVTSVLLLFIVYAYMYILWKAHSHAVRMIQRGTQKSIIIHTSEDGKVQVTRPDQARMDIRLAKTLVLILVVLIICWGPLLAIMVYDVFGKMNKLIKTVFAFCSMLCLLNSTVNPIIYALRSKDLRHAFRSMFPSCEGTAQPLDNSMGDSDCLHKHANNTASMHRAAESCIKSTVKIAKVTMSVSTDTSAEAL
Text: Cannabinoid receptor-mediated alteration in GTP-γ-[^35S] binding.
Introduction. The purpose of this assay was to characterize the functional activity of lead compounds identified by the radioligand competition binding assays described above. Data from the GTP-γ-[^35S] binding assay was used to determine if a compound was an agonist, antagonist or inverse agonist at G-protein-linked cannabinoid receptors. Agonist binding to a G-protein-linked receptor results in an increased affinity of the G-protein α-subunit for GTP relative to GDP. Eventually, an active αGTP complex forms to complete the stimulus-effector coupling. The α-subunit has intrinsic GTPase activity which generates a free α-subunit which can recombine with the β- and γ-subunits readying the G-protein for another signal transduction cycle. In the current assay, GTP-γ-[^35S] cannot be hydrolyzed by the α-subunit. Thus, the amount of bound GTP-γ-[^35S] is a marker for G-protein activation. In this assay, an agonist increases basal GTP-γ-[^35S] binding, an inverse agonist decreases basal binding and basal binding would be unaffected by an antagonist.
Experimental Design. The specific binding of GTP-γ-[^35S], in the absence of test compound, was termed “basal” activity. Test compounds were characterized as agonist, antagonist, or inverse agonist based on their effect on basal activity. […] The concentrations spanned two orders of magnitude because affinity may not be related to efficacy. […] Effects of the test compounds are reported as the percent change from basal. More thorough dose-response analysis may be run to determine, for example, if a compound is a full or partial agonist.
Methods. […] In a final volume of 0.5 mL, each assay tube contained: 0.02 mg crude membrane homogenate (0.1 mL), 200 μM GDP (0.05 mL; to reduce basal G-protein activity), 0.1 nM GTP-γ-[^35S] (0.05 mL) and several concentrations of test compound (0.05 mL) or an equivalent volume of vehicle (used for determination of total binding). Nonspecific binding was determined in the presence of 100 μM unlabeled GTP-γ-S (0.05 mL). Duplicate samples were incubated for 1 h at 30° C. Since this assay is amenable for use with high throughput screening methods, the binding assays were run using a 96-well plate format. Specific binding was calculated as total binding-nonspecific binding.

human CB1 receptor = molecular target: T4, human CB1 receptor (Homo sapiens, UniProt P21554); assay: Radioligand displacement in human CB1 receptor-transfected cells (HEK-293); type: binding
T4 construct: expressed in transfected cells; host or cells: HEK-293
T4 sequence (P21554 whole entry): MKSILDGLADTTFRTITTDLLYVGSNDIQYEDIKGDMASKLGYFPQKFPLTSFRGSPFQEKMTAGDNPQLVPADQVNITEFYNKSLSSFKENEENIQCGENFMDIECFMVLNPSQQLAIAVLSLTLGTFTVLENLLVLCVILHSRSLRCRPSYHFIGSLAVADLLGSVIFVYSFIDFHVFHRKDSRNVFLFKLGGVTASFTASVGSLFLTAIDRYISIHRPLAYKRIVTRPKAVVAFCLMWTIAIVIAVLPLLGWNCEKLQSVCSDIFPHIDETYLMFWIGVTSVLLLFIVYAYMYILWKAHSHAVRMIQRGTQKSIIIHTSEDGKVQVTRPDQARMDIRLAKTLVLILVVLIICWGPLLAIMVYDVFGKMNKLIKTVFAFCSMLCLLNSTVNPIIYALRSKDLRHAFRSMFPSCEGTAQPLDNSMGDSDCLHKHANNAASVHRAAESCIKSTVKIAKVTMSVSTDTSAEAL
Experimental: Human CB1 receptor affinity. The alkyl amide analogs of the present invention were examined using transfected cell lines expressing the human CB1 receptor (Table 3).
as §3, §1, §2

[2] = read-out: Ki, displacement of 3H-CP55940, whole rat brain membranes, radioligand 3H-CP55940, Tables 1 and 2
[3] = read-out: Ki, displacement of 3H-SR141716A, whole rat brain membranes, radioligand 3H-SR141716A, Tables 1 and 2
[4] = whole rat brain membranes, radioligand 3H-CP55940, Tables 1 and 2
[5] = whole rat brain membranes, radioligand 3H-SR141716A, Tables 1 and 2
[6] = read-out: Ki, displacement of 3H-CP55940, human CB2 transfected cells
[7] = Ki, displacement of 3H-CP55940, whole rat brain membranes, radioligand 3H-CP55940, Tables 1 and 2
[8] = Ki, displacement of 3H-SR141716A, whole rat brain membranes, radioligand 3H-SR141716A, Tables 1 and 2
[9] = Ki, displacement of 3H-CP55940, human CB2 transfected cells
[10] = inverse agonist/antagonist activity, read-out: EC50, GTP-γ-[35S] in Whole Rat Brain

T1 sequence (P20272 whole entry): as the sequence (P20272 whole entry) above

Row | Ki (CB1 receptor; [2]) [nM] | Max. Disp. %, 3H-CP55940 (CB1 receptor; [4]) [%] | Max. Disp. %, 3H-SR141716A (CB1 receptor; [5]) [%] | Max. Disp. %, 3H-CP55940 (human CB2 receptor; human CB2 transfected cells) [%] | Ki (human CB2 receptor; [6]) [µM] | Compound | Emax, GTP-γ-[35S] in Whole Rat Brain [1] | EC50 [1, 10] [µM] | also measured
1 | 1690 | 58.4 | 65.7 | 27.0 | 7.82 | Cc1c(C(=O)NO)nn(-c2ccc(Cl)cc2Cl)c1-c1ccc(Cl)cc1 [MF9725-131-25] | – | – | Ki (CB1 receptor; [3]): 1560 nM
2 | – | – | 96.8 | 47.5 | – | Cc1c(C(=O)NC(C)CO)nn(-c2ccc(Cl)cc2Cl)c1-c1ccc(Cl)cc1 (single isomer, unassigned) [MF9725-105-38] | −83.8 | 294 | Ki (CB1 receptor; [7]): 117 nM; Ki (CB1 receptor; [8]): 123 nM; Ki (human CB2 receptor; [9]): 5.9 µM
3 | – | – | – | – | – | Cc1c(C(=O)NN2CCCCC2)nn(C2CCCCC2)c1-c1ccc(Cl)cc1 [MF9879-117-24] | −71.7 | 108 | –
4 | – | 8.2 | 0 | 0.0 | – | Cc1c(C(=O)O)nn(-c2ccc(Cl)cc2Cl)c1-c1ccc(Cl)cc1 [SH9631-55] | – | – | Ki, displacement of 3H-SR141716A (CB1 receptor; [5]): Nr; Ki, displacement of 3H-CP55940 (human CB2 receptor; human CB2 transfected cells): nr
5 | – | – | – | – | – | Cc1c(C(=O)NN2CCCCC2)nn(-c2ccccc2)c1-c1ccc(Cl)cc1 [MF9879-64-23] | −47.2 | 361 | –
6 | 117 | 89.7 | 100 | 52.1 | – | Cc1c(C(=O)NC(C)CO)nn(-c2ccc(Cl)cc2Cl)c1-c1ccc(Cl)cc1 (single isomer, unassigned) [MF9725-106-39] | −83.0 | 292 | Ki (CB1 receptor; [8]): 99.8 nM; Ki (human CB2 receptor; [9]): 1.77 µM
7 | 160 | 86.6 | 100 | 43.1 | 1.25 | Cc1c(C(=O)NCCCO)nn(-c2ccc(Cl)cc2Cl)c1-c1ccc(Cl)cc1 [MF9725-94-31] | – | 241 | Ki (CB1 receptor; [3]): 156 nM; Emax [1]: -83.3%
8 | 154 | 88.7 | 97.6 | 54.3 | 5.72 | Cc1c(C(=O)NCCCCO)nn(-c2ccc(Cl)cc2Cl)c1-c1ccc(Cl)cc1 [MF9725-95-31] | – | 304 | Emax [1]: -79.5%
9 | 374 | 68.4 | 85.9 | 80.8 | 12.1 | Cc1c(C(=O)NN)nn(-c2ccc(Cl)cc2Cl)c1-c1ccc(Cl)cc1 [MF9879-34-8] | – | – | Ki (CB1 receptor; [3]): 602 nM; Emax [1]: -71.7%; EC50 ([1]; value above highest concentration tested (footnote), read-out: EC50, GTP-γ-[35S] in Whole Rat Brain, value is above highest concentration on displacement curve): ≥ 419 µM
10 | – | – | – | – | – | CCCCCCCn1nc(C(=O)NN2CCCCC2)c(C)c1-c1ccc(Cl)cc1 [MF10278-20-15] | −85.7 | 156 | –
11 | – | – | – | – | – | CCCCCCn1nc(C(=O)NN2CCCCC2)c(C)c1-c1ccc(Cl)cc1 [MF10278-22-16] | −71.5 | 74.7 | –

Row | Compound | Ki (CB1 receptor; [2]) [nM] | Max. Disp. %, 3H-CP55940 (CB1 receptor; [4]) [%] | Max. Disp. %, 3H-SR141716A (CB1 receptor; [5]) [%] | Max. Disp. %, 3H-CP55940 (human CB2 receptor; human CB2 transfected cells) [%] | Ki (human CB2 receptor; [6]) [µM] | Emax, GTP-γ-[35S] in Whole Rat Brain [1] | EC50 [1, 10] [µM] | also measured
12 | CCCCCCC(C)(C)NC(=O)c1nn(-c2ccc(Cl)cc2Cl)c(-c2ccc(Cl)cc2)c1C [MF10110-119-11] | – | 83.2 | 76.4 | 52.8 | – | – | – | Ki (CB1 receptor; [7]): 181 nM; Ki (CB1 receptor; [8]): 21.6 nM; Ki (CB1 receptor; Ki, displacement of 3H-WIN55212-2, whole rat brain membranes, radioligand 3H-WIN55212-2, Tables 1 and 2): 10.4 nM; Max. Disp. %, 3H-WIN55212-2 (CB1 receptor; whole rat brain membranes, radioligand 3H-WIN55212-2, Tables 1 and 2): 72.2%; Max. Disp. %, 3H-SR141716A (human CB1 receptor): 99.9%; Max. Disp. %, 3H-WIN55212-2 (human CB1 receptor): 86.5%; Ki (human CB1 receptor; displacement of 3H-CP55940): 32.7 nM; Ki (human CB1 receptor; displacement of 3H-SR141716A): 5 nM; Ki (human CB1 receptor; displacement of 3H-WIN55212-2): 14.4 nM; Ki (human CB2 receptor; [9]): 16.6 µM
13 | SR144528 [reference compound] | – | 84.7 | 68.6 | 88.4 | – | −27.7 | – | Max. Disp. %, 3H-CP55940 (CB1 receptor; whole rat brain, 3H-CP55940, Table 4, parallel synthesis analogs, n = 1): 84.7%; Max. Disp. %, 3H-SR141716A (CB1 receptor; whole rat brain, 3H-SR141716A, Table 4, parallel synthesis analogs, n = 1): 68.6%

Reference: US6825209B2, “Compounds having unique CB1 receptor binding selectivity and methods for their production and use” (Research Triangle Institute, priority 2002, dated 2004)
